Calls of active or inactive are those of the source. How the calls were made is not given here.
Tested on: CCRIS mutagenicity, Ames/micronucleus/aberration tests
Assay: CCRIS mutagenicity studies
[1] = Test System: AMES SALMONELLA TYPHIMURIUM, Strain/Indicator: TA98, Metabolic Activation: NONE, Method: STANDARD PLATE
[2] = Test System: AMES SALMONELLA TYPHIMURIUM, Strain/Indicator: TA100, Metabolic Activation: NONE, Method: STANDARD PLATE
[3] = Test System: AMES SALMONELLA TYPHIMURIUM, Strain/Indicator: TA98, Metabolic Activation: NONE, Method: PREINCUBATION
[4] = Test System: AMES SALMONELLA TYPHIMURIUM, Strain/Indicator: TA100, Metabolic Activation: NONE, Method: PREINCUBATION
[5] = Test System: AMES SALMONELLA TYPHIMURIUM, Strain/Indicator: TA1535, Metabolic Activation: NONE, Method: STANDARD PLATE
[6] = Test System: AMES SALMONELLA TYPHIMURIUM, Strain/Indicator: TA1537, Metabolic Activation: NONE, Method: STANDARD PLATE
[7] = Test System: AMES SALMONELLA TYPHIMURIUM, Strain/Indicator: TA1538, Metabolic Activation: NONE, Method: STANDARD PLATE

Measured: mutagenic call

CN(C)c1ccc(C(c2ccccc2)c2ccc(N(C)C)cc2)cc1
inactive: End Point: IN VIVO MICRONUCLEUS, Test System: PERIPHERAL BLOOD ERYTHROCYTES, Species: MOUSE, Strain/Sex: BIG BLUE B6C3F1/FEMALE, Route: DIET inactive; negative | Test System: AMES SALMONELLA TYPHIMURIUM, Strain/Indicator: TA97A, Metabolic Activation: NONE, Method: STANDARD PLATE inactive; negative | Test System: AMES SALMONELLA TYPHIMURIUM, Strain/Indicator: TA97A, Metabolic Activation: RAT LIVER S-9, 3-METHYLCHOLANTHRENE, PHENOBARBITAL, Method: STANDARD PLATE inactive; negative | [1] inactive; negative | Test System: AMES SALMONELLA TYPHIMURIUM, Strain/Indicator: TA98, Metabolic Activation: RAT LIVER S-9, 3-METHYLCHOLANTHRENE, PHENOBARBITAL, Method: STANDARD PLATE inactive; negative | [2] inactive; negative | Test System: AMES SALMONELLA TYPHIMURIUM, Strain/Indicator: TA100, Metabolic Activation: RAT LIVER S-9, 3-METHYLCHOLANTHRENE, PHENOBARBITAL, Method: STANDARD PLATE inactive; negative | Test System: AMES SALMONELLA TYPHIMURIUM, Strain/Indicator: TA102, Metabolic Activation: NONE, Method: STANDARD PLATE inactive; negative | Test System: AMES SALMONELLA TYPHIMURIUM, Strain/Indicator: TA102, Metabolic Activation: RAT LIVER S-9, 3-METHYLCHOLANTHRENE, PHENOBARBITAL, Method: STANDARD PLATE inactive; negative | Test System: CHO/HGPRT, Strain/Indicator: CHO-K1, Metabolic Activation: NONE, Method: STANDARD PLATE inactive; negative | Test System: CHO/HGPRT, Strain/Indicator: CHO-K1, Metabolic Activation: RAT LIVER S-9, 3-METHYLCHOLANTHRENE, PHENOBARBITAL, Method: STANDARD PLATE inactive; negative

C1=c2ccccc2=C2Cc3ccccc3C3=C4OC4=C1C32 (stereo unspecified)
active: [1] active; positive | Test System: AMES SALMONELLA TYPHIMURIUM, Strain/Indicator: TA98, Metabolic Activation: RAT, LIVER, S-9, AROCLOR 1254, Method: STANDARD PLATE active; positive

CC(C)(C)OOC(C)(C)CCC(C)(C)OOC(C)(C)C
inactive: Test System: AMES SALMONELLA TYPHIMURIUM, Strain/Indicator: TA97, Metabolic Activation: HAMSTER, LIVER, S-9, AROCLOR 1254 (10 OR 30%), Method: PREINCUBATION inactive; negative | Test System: AMES SALMONELLA TYPHIMURIUM, Strain/Indicator: TA97, Metabolic Activation: NONE, Method: PREINCUBATION inactive; negative | Test System: AMES SALMONELLA TYPHIMURIUM, Strain/Indicator: TA97, Metabolic Activation: RAT, LIVER, S-9, AROCLOR 1254 (10 OR 30%), Method: PREINCUBATION inactive; negative | Test System: AMES SALMONELLA TYPHIMURIUM, Strain/Indicator: TA98, Metabolic Activation: HAMSTER, LIVER, S-9, AROCLOR 1254 (10 OR 30%), Method: PREINCUBATION inactive; negative | [3] inactive; negative | Test System: AMES SALMONELLA TYPHIMURIUM, Strain/Indicator: TA98, Metabolic Activation: RAT, LIVER, S-9, AROCLOR 1254 (10 OR 30%), Method: PREINCUBATION inactive; negative | Test System: AMES SALMONELLA TYPHIMURIUM, Strain/Indicator: TA100, Metabolic Activation: HAMSTER, LIVER, S-9, AROCLOR 1254 (10 OR 30%), Method: PREINCUBATION inactive; negative | [4] inactive; negative | Test System: AMES SALMONELLA TYPHIMURIUM, Strain/Indicator: TA100, Metabolic Activation: RAT, LIVER, S-9, AROCLOR 1254 (10 OR 30%), Method: PREINCUBATION inactive; negative | Test System: AMES SALMONELLA TYPHIMURIUM, Strain/Indicator: TA1535, Metabolic Activation: HAMSTER, LIVER, S-9, AROCLOR 1254 (10 OR 30%), Method: PREINCUBATION inactive; negative | Test System: AMES SALMONELLA TYPHIMURIUM, Strain/Indicator: TA1535, Metabolic Activation: NONE, Method: PREINCUBATION inactive; negative | Test System: AMES SALMONELLA TYPHIMURIUM, Strain/Indicator: TA1535, Metabolic Activation: RAT, LIVER, S-9, AROCLOR 1254 (10 OR 30%), Method: PREINCUBATION inactive; negative

Cc1c2ccccc2cc2c3c(ccc12)C(O)C(O)[C@@H]1O[C@@H]31 (stereo partly specified)
active: [3] active; positive | [4] active; positive | Test System: CHINESE HAMSTER V-79, Strain/Indicator: V-79/6-THIOGUANINE, Metabolic Activation: NONE active; positive

O=[N+]([O-])c1nc2ccccc2[nH]1
active: [1] active; positive

[U]
active: End Point: In vitro chromosomal aberrations, Test System: Human colon tumor line LT97, Metabolic Activation: None, Method: 24 color FISH active; positive (breaks at tumor-relevant chromosomes 5, 12, and 17); uranium and nitri

CCCCOc1ccc2nc3cc(Cl)ccc3c(NCCCN(CC)CCCl)c2n1
active: [1] active; positive | Test System: AMES SALMONELLA TYPHIMURIUM, Strain/Indicator: TA1536, Metabolic Activation: NONE, Method: STANDARD PLATE active; positive | [6] active; positive | [7] active; positive
inactive: [2] inactive; negative | [5] inactive; negative

c1ccc(COc2cccc3cccnc23)cc1
inactive: Test System: AMES SALMONELLA TYPHIMURIUM, Strain/Indicator: TA100, Metabolic Activation: S-9, Method: PREINCUBATION inactive; negative

COP(=S)(OC)Oc1ccc(SC)c(C)c1
active: End Point: IN VITRO CHROMOSOMAL ABERRATIONS, Test System: HUMAN PERIPHERAL LYMPHOCYTES, Metabolic Activation: NONE active; positive (structural changes) | Test System: UDS Rat hepatocytes, Strain/Indicator: Thymidine incorporation, Metabolic Activation: None, Method: Autoradiography active; positive
inactive: End Point: In vitro chromosomal aberration, Test System: Chinese hamster ovary (CHO) cells, Metabolic Activation: None inactive; negative | End Point: In vitro chromosomal aberration, Test System: Chinese hamster ovary (CHO) cells, Metabolic Activation: Rat, Liver, S-9 inactive; negative

C[C@H]1CCCC(=O)CCCCCc2cc(O)cc(O)c2C(=O)O1
inactive: [1] inactive; negative | Test System: AMES SALMONELLA TYPHIMURIUM, Strain/Indicator: TA98, Metabolic Activation: RAT, LIVER, S-9, Method: STANDARD PLATE inactive; negative | [2] inactive; negative | Test System: AMES SALMONELLA TYPHIMURIUM, Strain/Indicator: TA100, Metabolic Activation: RAT, LIVER, S-9, Method: STANDARD PLATE inactive; negative | [5] inactive; negative | Test System: AMES SALMONELLA TYPHIMURIUM, Strain/Indicator: TA1535, Metabolic Activation: RAT, LIVER, S-9, Method: STANDARD PLATE inactive; negative; toxicity at 1000 ug/plate | [6] inactive; negative | Test System: AMES SALMONELLA TYPHIMURIUM, Strain/Indicator: TA1537, Metabolic Activation: RAT, LIVER, S-9, Method: STANDARD PLATE inactive; negative | [7] inactive; negative | Test System: AMES SALMONELLA TYPHIMURIUM, Strain/Indicator: TA1538, Metabolic Activation: RAT, LIVER, S-9, Method: STANDARD PLATE inactive; negative

Reference: PubChem BioAssay AID1259407 (Chemical Carcinogenesis Research Information System (CCRIS), 2018)
